Results as given in US4009269A, “Antibiotic compositions and methods from micromonospora purpurea JI-20” (Schering Corporation, priority 1975, dated 1977).
Values after ≈ are worked out from the molar mass of the structure shown. Counter-ions that a name gives are not always drawn.

Assays:
[1] = tested on: Staphylococcus aureus ATCC 6538P; test: Disc-plate assay (bioassay potency); format: cell-based; conditions: for potency (assay against standard Antibiotic JI-20B base): vs standard Antibiotic JI-20B base, assigned potency 1000 mcg/mg
Protocol: Peak antibiotic production is determined by a disc-plate assay which uses Staphylococcus aureus ATCC 6538P as the test organism and which is performed substantially as described by Oden, et al. Antimicrobial Agents and Chemotherapy, 1963, pages 8-13.
The reference standard is Antibiotic JI-20B base having an assigned potency of 1000 mcg/mg. One (1) microgram of the standard in one (1) ml. of 0.1M phosphate buffer at pH 8.0 elicits a zonal response of 16.8± 1.5 mm. The standard Antibiotic JI-20B sulfate assays 730 mcg/mg against the standard base. Antibiotic JI-20A base and the corresponding sulfate assay 723 mcg/mg. and 527 mcg/mg., respectively, when assayed against the standard Antibiotic JI-20B base.

[2] = tested on: Staphylococcus aureus Gray 979; test: In vivo mouse protection test; conditions: GRAY979, ip, Staphylococcus aureus Gray 979 i.p. infection, dosed twice (0 and 4 h), survivors at 48 hours, read-out: PD50
Protocol: (§1) To determine the in vivo protective activity of the antibiotics against lethal infections of pathogenic bacterial origin in mice, mice were dosed twice with the individual antibiotic, with a solution or a suspension in an aqueous vehicle containing 0.5 % carboxy-methyl-cellulose (CMC), once immediately before an intraperitoneal injection of the infecting bacteria and once 4 hours after such injection. The number of survivors was determined 48 hours after infection and that data analyzed by standard probit procedures to determine PD50 values with 95% confidence limits. The following chart sets forth the protective activity of the antibiotics against a pathogenic bacterium.

Staphylococcus aureus = test: In vivo mouse protection test; conditions: ip, Staphylococcus aureus i.p. infection, dosed twice (0 and 4 h), survivors at 48 hours, read-out: PD50
Protocol: as §1

Escherichia coli 11775 [3] = test: In vivo mouse protection test; conditions: ip, Escherichia coli 11775 i.p. infection, dosed twice (0 and 4 h), survivors at 48 hours, read-out: PD50
Protocol: as §1

[4] = tested on: Pseudomonas aeruginosa 1516-7; test: In vivo mouse protection test; conditions: 15167, ip, Pseudomonas aeruginosa 1516-7 i.p. infection, dosed twice (0 and 4 h), survivors at 48 hours, read-out: PD50
Protocol: as §1

Salmonella sp. S.C. = test: In vivo mouse protection test; conditions: 48 h, read-out: PD50
Protocol: as §1

[5] = tested on: Pseudomonas aeruginosa 413; test: In vivo mouse protection test; conditions: ip, Pseudomonas aeruginosa 413 i.p. infection, dosed twice (0 and 4 h), survivors at 48 hours, read-out: PD50
Protocol: as §1

Escherichia coli 626 = test: In vivo mouse protection test; conditions: ip, Escherichia coli 626 i.p. infection, dosed twice (0 and 4 h), survivors at 48 hours, read-out: PD50
Protocol: as §1

[6] = tested on: Streptococcus pyogenes C2V; test: In vivo mouse protection test; conditions: ip, Streptococcus pyogenes C2V i.p. infection, dosed twice (0 and 4 h), survivors at 48 hours, read-out: PD50
Protocol: as §1

Escherichia coli 12740 = test: In vitro MIC, Mueller-Hinton broth; format: cell-based; conditions: 24 hours, expressed as free base, tested as sulfate
Protocol: (§2) In the table set forth below are test results after 24 hours incubation against representative gram positive and gram negative bacteria.

[7] = tested on: Klebsiella rhinoscleromatis 18804; test: In vitro MIC, Mueller-Hinton broth; format: cell-based; conditions: Klebsiella pneumoniae, 24 hours, expressed as free base, tested as sulfate
Protocol: as §2

Klebsiella pneumoniae 18 = test: In vitro MIC, Mueller-Hinton broth; format: cell-based; conditions: 24 hours, expressed as free base, tested as sulfate
Protocol: as §2

Staphylococcus aureus 70 = test: In vitro MIC, Mueller-Hinton broth; format: cell-based; conditions: 24 hours, expressed as free base, tested as sulfate
Protocol: as §2

[8] = tested on: Staphylococcus aureus 2059; test: In vitro MIC, Mueller-Hinton broth; format: cell-based; conditions: 24 hours, expressed as free base, tested as sulfate
Protocol: as §2

Proteus mirabilis 8019 = test: In vitro MIC, Mueller-Hinton broth; format: cell-based; conditions: 24 hours, expressed as free base, tested as sulfate
Protocol: as §2

Escherichia coli 11775 [9] = test: In vitro MIC, Mueller-Hinton broth; format: cell-based; conditions: 24 hours, expressed as free base, tested as sulfate
Protocol: as §2

[10] = tested on: Pseudomonas aeruginosa 60; test: In vitro MIC, Mueller-Hinton broth; format: cell-based; conditions: 24 hours, expressed as free base, tested as sulfate
Protocol: as §2

[11] = tested on: Pseudomonas aeruginosa 59; test: In vitro MIC, Mueller-Hinton broth; format: cell-based; conditions: 24 hours, expressed as free base, tested as sulfate
Protocol: as §2

[12] = tested on: Klebsiella pneumonia 13883; test: In vitro MIC, Mueller-Hinton broth; format: cell-based; conditions: Klebsiella pneumoniae, 24 hours, expressed as free base, tested as sulfate
Protocol: as §2

Staphylococcus aureus 45 = test: In vitro MIC, Mueller-Hinton broth; format: cell-based; conditions: 24 hours, expressed as free base, tested as sulfate
Protocol: as §2

Acute toxicity = conditions: in vivo, iv, I.V.
pKa = format: physicochemical

## CNC1C(O)C(OC2C(N)CC(N)C(OC3OC(CN)C(O)C(O)C3N)C2O)OCC1(C)O (stereo not shown) [Antibiotic JI-20A sulfate]
[1]
  potency (assay against standard Antibiotic JI-20B base): 527 µg/mg

## CNC1C(O)C(OC2C(N)CC(N)C(OC3OC(CN)C(O)C(O)C3N)C2O)OCC1(C)O (stereo not shown) [Antibiotic JI-20A]
[1]; listed as Antibiotic JI-20A base
  potency (assay against standard Antibiotic JI-20B base): 723 µg/mg
[2]
  ED50: 3 mg/kg
Staphylococcus aureus
  ED50: 2.9 mg/kg
Escherichia coli 11775 [3]
  ED50: 4 mg/kg
[4]
  ED50: 50 mg/kg
Salmonella sp. S.C.
  ED50: 3 mg/kg
[5]
  ED50: 50 mg/kg
Escherichia coli 626
  ED50: 15 mg/kg
[6]
  ED50: 40 mg/kg
Escherichia coli 12740
  MIC: 0.3 µg/mL (≈ 0.623 µM)
[7]
  MIC: 0.05 µg/mL (≈ 0.104 µM)
Klebsiella pneumoniae 18
  MIC: 7.5 µg/mL (≈ 15.6 µM)
Staphylococcus aureus 70
  MIC: 3 µg/mL (≈ 6.23 µM)
[8]
  MIC: 7.5 µg/mL (≈ 15.6 µM)
Proteus mirabilis 8019
  MIC: 0.8 µg/mL (≈ 1.66 µM)
Escherichia coli 11775 [9]
  MIC: 0.3 µg/mL (≈ 0.623 µM)
[10]
  MIC: 3 µg/mL (≈ 6.23 µM)
[11]
  MIC: 3 µg/mL (≈ 6.23 µM)
[12]
  MIC: 7.05 µg/mL (≈ 14.6 µM)
Staphylococcus aureus 45
  MIC: 0.3 µg/mL (≈ 0.623 µM)
Acute toxicity
  LD50: 115 mg/kg
pKa
  pKa: 8.1

## CN[C@@H]1[C@@H](O)[C@@H](O[C@@H]2[C@@H](O)[C@H](O[C@H]3O[C@H](C(C)N)[C@@H](O)[C@H](O)[C@H]3N)[C@@H](N)C[C@H]2N)OC[C@]1(C)O (stereo partly shown) [Antibiotic JI-20B]
[1]; Staphylococcus aureus, ATCC6538P, 1 microgram of standard in 1 ml 0.1M phosphate buffer pH 8.0, read-out: zonal response
  zone of inhibition at 1 µg/mL: 16.8 ± 1.5 mm
[2]
  ED50: 2.8 mg/kg
Staphylococcus aureus
  ED50: 14 mg/kg
Escherichia coli 11775 [3]
  ED50: 8 mg/kg
[4]
  ED50: 50 mg/kg
Salmonella sp. S.C.
  ED50: 4.5 mg/kg
[5]
  ED50: 50 mg/kg
Escherichia coli 626
  ED50: 15 mg/kg
[6]
  ED50: 40 mg/kg
Escherichia coli 12740
  MIC: 0.3 µg/mL (≈ 0.605 µM)
[7]
  MIC: 0.08 µg/mL (≈ 0.161 µM)
Klebsiella pneumoniae 18
  MIC: 17.5 µg/mL (≈ 35.3 µM)
Staphylococcus aureus 70
  MIC: 3 µg/mL (≈ 6.05 µM)
[8]
  MIC: 7.5 µg/mL (≈ 15.1 µM)
Proteus mirabilis 8019
  MIC: 0.8 µg/mL (≈ 1.61 µM)
Escherichia coli 11775 [9]
  MIC: 0.8 µg/mL (≈ 1.61 µM)
[10]
  MIC: 17.5 µg/mL (≈ 35.3 µM)
[11]
  MIC: 7.5 µg/mL (≈ 15.1 µM)
[12]
  MIC: 0.08 µg/mL (≈ 0.161 µM)
Staphylococcus aureus 45
  MIC: 0.3 µg/mL (≈ 0.605 µM)
Acute toxicity
  LD50: 115 mg/kg
pKa
  pKa: 8.1

## CN[C@@H]1[C@@H](O)[C@@H](O[C@@H]2[C@@H](O)[C@H](O[C@H]3O[C@H](C(C)N)[C@@H](O)[C@H](O)[C@H]3N)[C@@H](N)C[C@H]2N)OC[C@]1(C)O (stereo partly shown) [Antibiotic JI-20B sulfate]
[1]
  potency (assay against standard Antibiotic JI-20B base): 730 µg/mg
